In patent publication US20260325473A1, “N-Beta-Hydroxybutyryl-Amino Acids and Related Compositions and Methods” (The Board of Trustees of the Leland Stanford Junior …, priority 2023, published 2026):

Columns and labels:
[1] = target: T1, CNDP2 (Mus musculus, UniProt Q9D1A2); experiment: In vitro synthase (condensation) activity, lysates of CNDP2-transfected HEK293T cells; format: biochemical; parameters: expressed in transfected cells; host or cells: HEK293T (lysate); settings: role: product; lactate and BHB at varying concentrations, phenylalanine 20 mM
T1 sequence (Q9D1A2 1-475): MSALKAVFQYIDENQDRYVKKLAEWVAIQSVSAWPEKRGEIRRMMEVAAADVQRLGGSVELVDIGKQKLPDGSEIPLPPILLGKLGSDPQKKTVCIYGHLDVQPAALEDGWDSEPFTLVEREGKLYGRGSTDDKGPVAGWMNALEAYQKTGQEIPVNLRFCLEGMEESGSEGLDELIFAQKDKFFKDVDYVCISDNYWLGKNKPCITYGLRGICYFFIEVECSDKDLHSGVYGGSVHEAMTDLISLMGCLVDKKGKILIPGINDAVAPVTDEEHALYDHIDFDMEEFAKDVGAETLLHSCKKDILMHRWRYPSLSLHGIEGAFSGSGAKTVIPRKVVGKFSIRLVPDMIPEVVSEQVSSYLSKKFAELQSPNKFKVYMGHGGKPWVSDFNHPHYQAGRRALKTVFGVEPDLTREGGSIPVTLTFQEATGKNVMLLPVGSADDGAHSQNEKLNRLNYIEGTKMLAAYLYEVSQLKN
Protocol: In vitro enzyme activity assays. HEK293T cells were transfected with GFP, CNDP2 or CNDP2-E166A using PolyFect (Qiagen 301105) according to the manufacturer's instructions. The medium was changed one day post-transfection. After an additional 24 h, the cells were harvested in PBS, lysed by sonication and centrifuged (10 min at 15,000 rpm) to remove debris. Supernatant was collected and protein concentrations were adjusted. The in vitro reactions were conducted in Eppendorf tubes with 100 μL of 1 mg/mL protein and 20 mM substrates for keto amino acid synthase activity assays and. Reactions were incubated for 1 h at 37° C. and 20 μl of 1 M HCl were added to acidify the medium and to protonate keto amino acids. Reactions were vortexed and 400 μL of ethyl acetate were added to each reaction. Reactions were vortexed for 30 s to extract keto amino acids into the organic layer and centrifuged at 4° C. for 10 min at 15,000 r.p.m. A total of 300 μl from the top layer was transferred to a new Eppendorf tube and dried down under a stream of nitrogen. The residue was re-suspended in 150 μl of an 2:1:1 mixture of acetonitrile: methanol: water. The mixture was centrifuged at 4° C. for 10 min at 15,000 r.p.m. and the supernatant was transferred to a LC-MS vial.

[2] = system: brain lysate proteins; experiment: Competition of X-Phe photoprobe-labeled brain proteins, quantitative shotgun proteomics; format: binding, mouse
Protocol: Shotgun proteomics of X-Phe photoprobe-labeled proteins. Brains from wild type C57BL/6J mice were harvested and homogenized using a bead blaster in PBS. Brain homogenate was centrifuged (15,000 rpm, 10 min) to yield the cytosolic supernatant and membrane pellet fractions. The cytosolic fraction was transferred to a new eppie and centrifuged again (15,000 rpm, 10 min). This process was repeated 4 times until no pellet was present after centrifugation. The membrane pellet was washed with 1 ml PBS and centrifuged (15,000 rpm, 10 min); this step was also repeated 4 times to remove any cytosolic protein contamination. After the centrifugation steps, the membrane pellet was re-suspended in PBS and sonicated. For competition experiments, brain lysate was normalized to 2 mg/ml in PBS and incubated with competitors at the indicated concentrations at room temperature for 30 minutes. 100 μM of the photoprobe was added and the reactions incubated on ice for 10 minutes protected from light. Reactions were then put under UV for 1 min on a UV Stratalinker. A biotin click reaction was performed by adding the following reagents to the indicated final concentrations: […], 1 mM CuSO4, 1 mM TCEP (freshly prepared), 30 μM Biotin-N3. Reactions were allowed to proceed for 1 hour at room temp, protected from light, and while rotating. The following prep was adapted from Niphakis et al. 2015. To each reaction, the following solvents were added in order, 4 ml cold methanol, 1 ml cold chloroform, 2 ml cold PBS. The mixture was vortexed well and centrifuged (4,600×g, 15 min, 4° C.). After centrifugation the organic and aqueous layers were removed without disruption of the protein disc. The protein disc was washed with a cold 1:1 mixture of methanol:chloroform 3 times. After the final wash, the protein disc was re-suspended in a 4:1 mixture of methanol:chloroform and sonicated. The insoluble protein was pelleted by centrifugation (4,600×g, 15 min, 4 C) and the pellet re-suspended in freshly prepared 500 μl of 6 M urea in PBS. 20 μl of 10% (w/v) SDS was added to the solution. The solution was then warmed in a 37 C water bath for 10 min to help dissolve poorly soluble protein. A streptavidin pulldown was the performed on the protein mixture. 250 μl of streptavidin beads were washed 3 times with 1 ml PBS. Protein samples were diluted with 5.5 ml of 0.25% SDS in PBS and incubated with streptavidin beads for 1.5 hr at room temperature. Following incubation, beads were washed 5 times each with 0.25% SDS in PBS, then PBS, then lastly with ultra-pure water Steptavidin beads were suspended in 150 μL resuspension buffer (1 M urea, 50 mM Tris-HCl, pH 8). Proteins were digested with 3 μg of trypsin for 4 hours. Digested peptides were reduced with 5 mM TCEP for 10 minutes. Cys residues were alkylated using 15 mM iodoacetimide (IAA) for 20 minutes. Finally, excess IAA was quenched with 10 mM DTT. Acidified digested peptides were desalted over C18 StageTips [PMID: 12585499]. Peptides were then eluted with 80% acetonitrile, 0.1% TFA and dried in a speedvac. Dried samples were reconstituted with 200 mM EPPS buffer, pH 8.0, and labelled with TMT reagents (Thermo Fisher Scientific). Following incubation at room temperature for 2 h, the reactions were quenched with hydroxylamine to a final concentration of 0.5% (v/v). […]

[3] = system: food intake; settings: Li et al. 2022; cited from earlier work
[4] = Metabolite quantitation in mouse plasma (QQQ-LC/MS); format: in vivo
Protocol: Preparation of plasma samples for LC-MS analysis. Plasma was collected from mice via a submandibular bleed into lithium heparin tubes (BD, 365985) and immediately transferred onto ice. The blood was centrifuged at 4° C. at 5000 rpm for 5 min and the top layer of plasma was aliquoted and frozen at −80 °C. To extract polar metabolites from plasma for LC-MS analysis, 150 μl of a 2:1 mixture of acetonitrile/methanol was added to 50 μl of plasma. The mixture was centrifuged at 4° C. for 10 min at 15,000 rpm and the supernatant was transferred to a LC-MS vial.
Targeted metabolomics. Targeted measurements were performed using an Agilent 6470 triple quadrupole LC-MS instrument. MS analysis was performed using AJS in negative mode. The AJS source parameters were set as follows: the dry gas temperature was set at 250° C. with a gas flow of 12 l/min and the nebulizer pressure at 25 psi; the sheath gas temperature was set to 300° C. with the sheath gas flow set at 12 l/min; and the capillary voltage was set to 3,500 V. Separation of polar metabolites was performed as described above in the ‘Untargeted measurements of metabolites by LC-MS’ section. Multiple reaction monitoring was performed for the indicated metabolites with the listed dwell times, fragmentor voltage, collision energies, cell accelerator voltages and polarities. Quantification of the endogenous metabolite concentrations were performed by generating a standard curve with known concentrations of each metabolite. Metabolite standards were analyzed alongside the plasma samples using the same targeted triple quadrupole LC/MS method. A calibration standard curve generated from the metabolite standard concentrations and total peak areas were used to calculate the concentrations of each endogenous metabolite. The dilution of the plasma during the sample preparation was also taken into account for the quantification.

[5] = target: T1, CNDP2; settings: Li et al. 2022; cited from earlier work
[6] = target: T1, CNDP2; experiment: In vitro synthase (condensation) activity, lysates of CNDP2-transfected HEK293T cells; format: biochemical; parameters: expressed in transfected cells; host or cells: HEK293T (lysate); settings: role: substrate; organic acids 1 mM with 10 mM phenylalanine

Compound: C[C@H](O)C(=O)N[C@@H](Cc1ccccc1)C(=O)O [Lac-Phe, N-lactoyl phenylalanine]
- products formed from combined lactate and BHB [1]: simultaneous production
- competition of X-Phe photoprobe-labeled proteins ([2]; 100 μM photoprobe, 50-fold excess competitor): > 80%
- number of the 32 Keto-Phe targets also >80% competed by Lac-Phe ([2]; 50-fold excess Lac-Phe): 30 out of 32
- share of the 32 Keto-Phe targets also >80% competed by Lac-Phe ([2]; 50-fold excess Lac-Phe): 94%
- food intake [3]: suppresses food intake
- elevation after acute treadmill running ([4]; 15 min running): 8 fold
- effect of ketone ester administration on level ([4]; 30 min after ketone drink, 3 mg/g): without affecting Lac-Phe levels
- effect of strenuous and prolonged exercise on level ([4]; 30 min strenuous running): robust co-induction
- Lac-Phe levels upon genetic ablation of CNDP2 [5]: dramatically reduces Lac-Phe levels

Compound: CC(=O)O [acetate]
- CNDP2 activity towards organic acid substrates [6]: unable to accept
